The values below are quoted from earlier work in patent publication US20210214291A1, “Rapid Thermal Isomerization of Lycopene” (priority 2020, published 2021).

The conditions of data set [1]: organic solvents, 24 hrs.
The subject of data set [2] is super oxide dismutase (SOD) activity. The settings on record: for increase in SOD activity: patients.

Where two headings read alike, the source gives them in different places.

On to `CC(C)=CCC/C(C)=C/C=C/C(C)=C/C=C/C(C)=C/C=C/C=C(C)/C=C/C=C(C)/C=C/C=C(\C)CCC=C(C)C` [trans-lycopene], for which the “isomerization ratio to the cis-isomer” value is listed as 11.4% in data set [1] (4 C) and 77.8% in data set [1] (50 C).
For `CC(C)=CCC/C(C)=C/C=C/C(C)=C/C=C/C(C)=C/C=C/C=C(C)/C=C/C=C(C)/C=C/C=C(\C)CCC=C(C)C` [lycopene], the entries for the “increase in SOD activity” value in data set [2] (daily 6 mg for 8 wks) and in data set [2] (daily 15 mg for 8 wks) were 1.73 units per milliliter and 2.37 units per milliliter, respectively. Besides, the “reduction in C-reactive protein (CRP) levels” value in data set [2] (high dose group (15 mg daily, 8 wks)) is listed as 57%.
